Converted amounts (≈) assume the structure as drawn. Values belong to the compound of their own block, whether it stands above or below them.
Assays:
Format in all cases: physicochemical
[1] = Preliminary solubility in 14 solvents by solvent addition with visual assessment; details: thermodynamic from solid, RT
From the text: Preliminary solubility of Compound 1 (Form V) was estimated in 14 selected solvents at RT using solvent addition method via visual assessment of samples.

[2] = Water activity studies in IPA/water
Protocol: Water activity studies of Form I, II and V were also performed in IPA/water with different water content at RT and 50° C.

[3] = Solid stability of Form II
Protocol: (§1) HPLC analysis was performed with an Agilent HPLC 1260 series instrument.
The solid stability of Form II was evaluated at 60° C. for 7 days, 40° C./75% RH for 6 days, and RT/92.5% RH for 2 days, respectively. […] The purity of Compound 1 decreased by about 0.3% at 60° C. for 3 days and 7 days, mainly due to the increase of the impurities at RRT 0.9, 0.91 and 1.07.

[4] = Dynamic Vapor Sorption (DVS)
Protocol: Moisture sorption/desorption data was collected on a DVS Intrinsic PLUS (SMS, UK). The sample was placed into a tared sample chamber and automatically weighed. The sample was dried at 40° C./0% RH until the dm/dt was less than 0.002% and cooled to 25° C.

[5] = Competitive slurry inter-conversion studies; details: competitive slurries in non-aqueous solvents, RT and 50° C.
Protocol: Competitive slurries of Form I, II and V were performed in IPAC at RT and 50° C. […] A competitive slurry of Form III and Form II was conducted in IPA and IPAC at RT and 50° C., respectively, and all mixtures converted to Form II after 1 day. A competitive slurry of Form II and IX was also performed in IPA and IPAC at RT and 50° C. […] In IPA at RT and IPA and EA at RT and 50° C., all mixtures tended to convert to Form II.

[6] = Solubility testing of Form II in SGF, water, FaSSIF and FeSSIF; details: for solubility: thermodynamic from solid
Protocol: Nine crystal forms were identified, assigned as Form I-IX, including a mono-hydrate (Form I) four anhydrates (Form II, III, V and IX), a hemihydrate, (Form IV) and three solvates (Form VI, VII and VIII). […] The three solvates (Form VI, VII, and VIII) converted to Form II after desolvation and recrystallization during heating by DSC. Form II was evaluated by DVS, solubility and stability testing. […] The purity decreased by about 0.3% at 60° C. for 3 days and 7 days, mainly due to the increase of impurities at RRT 0.9, 0.91 and 1.07.
as §1

[7] = Solid form characterization summary (hygroscopicity comment); details: comment on solid form
From the text: A summary of the characterization data for the solid forms of Compound 1 identified is shown below in Table 15.

Structure (SMILES): C=CC(=O)N1C[C@@H](n2nc(C#Cc3c(F)cc4c(ncn4C4CC4)c3F)c(C(N)=O)c2NC)C[C@@H]1COC [Compound 1, 1-((3S,5R)-1-acryloyl-5-(methoxymethyl)pyrrolidin-3-yl)-3-((1-cyclopropyl-4,6-difluoro-1H-benzo[d]imidazol-5-yl)ethynyl)-5-(methylamino)-1H-pyrazole-4-carboxamide]
solubility ([1]; organic solvent or mixture, ACN, Form V material, read-out: Solubility): 27000 to 36000 µg/mL (≈ 51.6 to 68.8 mM)
solubility ([1]; organic solvent or mixture, Acetone, Form V material, read-out: Solubility): ~34000 µg/mL (≈ 64.9 mM)
solubility ([1]; organic solvent or mixture, EA, Form V material, read-out: Solubility): ~8000 µg/mL (≈ 15.3 mM)
solubility ([1]; organic solvent or mixture, EtOH, Form V material, read-out: Solubility): ~21000 µg/mL (≈ 40.1 mM)
solubility ([1]; organic solvent or mixture, IPA, Form V material, read-out: Solubility): ~5000 µg/mL (≈ 9.55 mM)
solubility ([1]; organic solvent or mixture, IPAC, Form V material, read-out: Solubility): ~4000 µg/mL (≈ 7.64 mM)
solubility ([1]; organic solvent or mixture, Isobutanol, Form V material, read-out: Solubility): ~6000 µg/mL (≈ 11.5 mM)
solubility ([1]; organic solvent or mixture, MEK, Form V material, read-out: Solubility): ~31000 µg/mL (≈ 59.2 mM)
solubility ([1]; organic solvent or mixture, MTBE, Form V material, read-out: Solubility): < 750 µg/mL
solubility ([1]; organic solvent or mixture, MeOH, Form V material, read-out: Solubility): > 106000 µg/mL
solubility ([1]; organic solvent or mixture, THF, Form V material, read-out: Solubility): > 100000 µg/mL
solubility ([1]; organic solvent or mixture, Toluene, Form V material, read-out: Solubility): < 1000 µg/mL
solubility ([1]; organic solvent or mixture, n-Heptane, Form V material, read-out: Solubility): < 1000 µg/mL
solubility ([1]; Water, Form V material, read-out: Solubility): < 1000 µg/mL

Structure (SMILES): C=CC(=O)N1C[C@@H](n2nc(C#Cc3c(F)cc4c(ncn4C4CC4)c3F)c(C(N)=O)c2NC)C[C@@H]1COC [Form I, 1-((3S,5R)-1-acryloyl-5-(methoxymethyl)pyrrolidin-3-yl)-3-((1-cyclopropyl-4,6-difluoro-1H-benzo[d]imidazol-5-yl)ethynyl)-5-(methylamino)-1H-pyrazole-4-carboxamide]
Water activity (aw) at which Form I is more stable than Form II ([2]; 50° C.): ≥ 0.75
Water activity (aw) at which Form I is more stable than Form II ([2]; RT): ≥ 0.55

Other lines, results leading:

Water activity (aw) at which the form is physically stable ([2]; 50° C.): ≤ 0.55
Water activity (aw) at which the form is physically stable ([2]; RT): ≤ 0.35
Solid stability ([3]; 40° C./75% RH for 6 days): physically and chemically stable
Purity decrease ([3]; 60° C. for 3 days and 7 days): about 0.3%
Solid stability ([3]; RT/92.5% RH for 2 days): physically stable
Hygroscopicity ([4]; DVS): slightly hygroscopic
Crystal form after DVS testing ([4]; after DVS testing): remained unchanged
Relative stability of forms [5]: most stable form in non-aqueous solvents
solubility ([6]; SGF, simulated gastric fluid): 800 µg/mL (≈ 1.53 mM)
Solubility in FeSSIF relative to FaSSIF ([6]; at 24 h): about thirty times higher
solubility ([6]; water): ~3 µg/mL (≈ 0.00573 mM)
Structure (SMILES): C=CC(=O)N1C[C@@H](n2nc(C#Cc3c(F)cc4c(ncn4C4CC4)c3F)c(C(N)=O)c2NC)C[C@@H]1COC [Form II, 1-((3S,5R)-1-acryloyl-5-(methoxymethyl)pyrrolidin-3-yl)-3-((1-cyclopropyl-4,6-difluoro-1H-benzo[d]imidazol-5-yl)ethynyl)-5-(methylamino)-1H-pyrazole-4-carboxamide]

Hygroscopicity [7]: Hygroscopic
Structure (SMILES): C=CC(=O)N1C[C@@H](n2nc(C#Cc3c(F)cc4c(ncn4C4CC4)c3F)c(C(N)=O)c2NC)C[C@@H]1COC [Form III, 1-((3S,5R)-1-acryloyl-5-(methoxymethyl)pyrrolidin-3-yl)-3-((1-cyclopropyl-4,6-difluoro-1H-benzo[d]imidazol-5-yl)ethynyl)-5-(methylamino)-1H-pyrazole-4-carboxamide]

solubility ([1]; organic solvent or mixture, MeOH, THF, acetone, MEK and ACN, read-out: Solubility (relatively high)): > 20000 µg/mL
solubility ([1]; non-polar solvents and water, read-out: Solubility (practically insoluble)): < 1000 µg/mL
Structure (SMILES): C=CC(=O)N1C[C@@H](n2nc(C#Cc3c(F)cc4c(ncn4C4CC4)c3F)c(C(N)=O)c2NC)C[C@@H]1COC [Form V, 1-((3S,5R)-1-acryloyl-5-(methoxymethyl)pyrrolidin-3-yl)-3-((1-cyclopropyl-4,6-difluoro-1H-benzo[d]imidazol-5-yl)ethynyl)-5-(methylamino)-1H-pyrazole-4-carboxamide]
